Data on one compound can be found in publication PMC4506092, “Utilizing Chemical Genomics to Identify Cytochrome b as a Novel Drug Target for Chagas Disease” (PLoS Pathogens, 2015).

This data set can be described thus: Mammalian cell cytotoxicity assay (CellTiter-Glo). The format is cell-based, mouse. To be noted: mouse; NIH/3T3, 96 hours; read-out: CC50, 3T3 cell line. The method, then: NIH/3T3 fibroblast cells were maintained in RPMI-1640 medium supplemented with 10% heat-inactivated FBS and 100 IU penicillin / 100 μg streptomycin per mL at 37°C / 5% CO2. For compound screening, cells were diluted to 4 × 10^4 cells / mL in assay medium (RPMI-1640, 5% FBS, and 100 IU penicillin / 100 μg streptomycin per mL) and seeded at 50 μL / well into 384-well plates. Following overnight incubation, compounds were added to each well (0.2% DMSO final concentration) and plates were further incubated for 96 hours. Cell viability was assessed using the CellTiter-Glo Luminescent Cell Viability Assay (Promega). Measured luminescence values were normalized to the value obtained for 0.2% DMSO, and plotted against the corresponding compound concentration for half maximal cytotoxic concentration (CC50) value determination.

As for `CCc1c(C)c(C#N)c2nc3ccccc3n2c1O` [GNF7686], the CC50 is above 20 µM.

One may read the CC50 as the concentration that lowers cell viability or growth by half.
